The target of assay [1] is GDP-bound KRAS wild-type protein (Homo sapiens, UniProt P01116). Briefly: Binding to KRAS by surface plasmon resonance (SPR), Single Cycle Kinetics. To be noted: SPR, Single Cycle Kinetics, GDP-bound KRAS wild-type protein, read-out: KRAS KD. On the technique in general: In SPR one partner is held on a chip, and binding of the other changes the refractive index at the surface.

In assay [2] the target is GDP-bound NRAS wild-type protein (Homo sapiens, UniProt P01111). Briefly: Binding to NRAS by surface plasmon resonance (SPR), Single Cycle Kinetics. To be noted: SPR, GDP-bound NRAS wild-type protein vs GDP-bound KRAS wild-type protein.
GDP-bound NRAS wild-type protein, sequence (P01111 whole entry): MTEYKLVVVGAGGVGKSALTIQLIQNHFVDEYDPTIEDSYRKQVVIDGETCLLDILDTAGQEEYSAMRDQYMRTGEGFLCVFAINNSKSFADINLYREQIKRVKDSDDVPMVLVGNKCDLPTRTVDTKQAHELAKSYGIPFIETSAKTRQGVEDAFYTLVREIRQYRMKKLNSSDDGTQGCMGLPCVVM
Assay [3] addresses GDP-bound HRAS wild-type protein (Homo sapiens, UniProt P01112). The assay can be described thus: Binding to HRAS by surface plasmon resonance (SPR), Single Cycle Kinetics. To be noted: SPR, GDP-bound HRAS wild-type protein vs GDP-bound KRAS wild-type protein.
In assay [4] the test system is human lung cancer strain NCI-H441.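 Note: cell proliferation inhibition after four days measured by CellTiter-Glo.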

Like-named read-outs stand apart in the source and are kept apart here.

GDP-bound HRAS wild-type protein, sequence (P01112 whole entry): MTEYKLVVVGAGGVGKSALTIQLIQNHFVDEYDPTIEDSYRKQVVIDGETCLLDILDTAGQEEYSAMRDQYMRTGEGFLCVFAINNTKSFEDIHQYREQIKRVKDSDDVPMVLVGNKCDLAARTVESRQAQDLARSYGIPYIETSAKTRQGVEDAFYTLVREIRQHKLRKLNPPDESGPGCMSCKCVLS
GDP-bound KRAS wild-type protein, sequence (P01116 whole entry): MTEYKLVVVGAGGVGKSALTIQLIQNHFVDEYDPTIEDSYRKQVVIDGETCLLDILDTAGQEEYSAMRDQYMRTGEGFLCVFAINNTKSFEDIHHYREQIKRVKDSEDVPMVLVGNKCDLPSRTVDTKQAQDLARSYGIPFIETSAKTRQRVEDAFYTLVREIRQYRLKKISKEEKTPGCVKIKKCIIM

Turning to `CCO[C@@H]1C[C@H]2C(=O)NC3(CCC3)C(=O)N(C)[C@@H](C(CC)CC)C(=O)N(C)[C@H](C(=O)N(C)C)CC(=O)N(C)[C@@H](CC(C)C)C(=O)N[C@@H]([C@@H](C)CC)C(=O)N(C)CC(=O)N(C)[C@H]3C/C=C\CCN(C3=O)[C@@H](Cc3ccc(C(F)(F)F)cc3)C(=O)N(C)CC(=O)N[C@@H](CCc3cc(F)c(C(F)(F)F)c(F)c3)C(=O)N2C1` [PP1201], the Kd in assay [1] was found to be 0.17 nM. Further, the “NRAS/KRAS (ratio of KD value for NRAS to KD value for KRAS)” value in assay [2] is listed as “AA (a compound having 20 or more is denoted as AA)”. In addition, in assay [3], the “HRAS/KRAS (ratio of KD value for HRAS to KD value for KRAS)” value was “A (a compound having 10 or more and less than 20 is denoted as A)”. In assay [4], this compound returned an IC50 of 9.7 nM.
`CCO[C@@H]1C[C@H]2C(=O)NC3(CCC3)C(=O)N(C)[C@@H](C3CCCC3)C(=O)N(C)[C@H](C(=O)N3CCCC3)CC(=O)N(C)[C@@H](CC3CC3)C(=O)N[C@@H]([C@@H](C)CC)C(=O)N(C)CC(=O)N(C)[C@H]3C/C=C\CCN(C3=O)[C@@H](Cc3ccc(C)cc3)C(=O)N(C)CC(=O)N[C@@H](CCc3cc(F)c(C(F)(F)F)c(F)c3)C(=O)N2C1` [PP1409]: the Kd in assay [1] (1:1 binding model) stood at 0.21 nM. In assay [2] (KD ratio class), the “NRAS/KRAS (ratio of KD value for NRAS to KD value for KRAS)” value is “A (a compound having 10 or more and less than 20 is denoted as A)”. Moreover, in assay [3] (KD ratio class), the “HRAS/KRAS (ratio of KD value for HRAS to KD value for KRAS)” value was “A (a compound having 10 or more and less than 20 is denoted as A)”. This compound also yielded a half-maximal inhibitory concentration (IC50) in assay [4] of 43.5 nM.
On to `CCO[C@@H]1C[C@H]2C(=O)NC3(CCC3)C(=O)N(C)[C@@H](C3CCCC3)C(=O)N(C)[C@H](C(=O)N3CCOCC3)CC(=O)N(C)[C@@H](CC(C)C)C(=O)N[C@@H]([C@@H](C)CC)C(=O)N3CC[C@H]3C(=O)N(C)[C@H]3C[C@@H](C)[C@@H](C)CN(C3=O)[C@@H](Cc3ccc(C(F)(F)F)cc3)C(=O)N(C)CC(=O)N[C@@H](CCc3ccc(C(F)(F)F)c(Cl)c3)C(=O)N2C1` [PP1361], for which, in assay [1] (1:1 binding model), the Kd is 0.15 nM. Also, in assay [2] (KD ratio class), the “NRAS/KRAS (ratio of KD value for NRAS to KD value for KRAS)” value was “A (a compound having 10 or more and less than 20 is denoted as A)”. Besides, the “HRAS/KRAS (ratio of KD value for HRAS to KD value for KRAS)” value in assay [3] (KD ratio class) was “B (a compound having 3 or more and less than 10 is denoted as B)”. The compound also showed an IC50 in assay [4] of 6.2 nM.
For the compound `CCO[C@@H]1C[C@H]2C(=O)NC3(CCC3)C(=O)N(C)[C@@H](C3CCCC3)C(=O)N(C)[C@H](C(=O)N(C)C)CC(=O)N(C)[C@@H](CC)C(=O)N[C@@H]([C@@H](C)CC)C(=O)N(C)CC(=O)N(C)[C@H]3C/C=C\CCN(C3=O)[C@@H](Cc3ccc(C(F)(F)F)cc3)C(=O)N(C)CC(=O)N[C@@H](CCc3ccc(C(F)(F)F)c(C)c3)C(=O)N2C1` [PP1265], in assay [1] (1:1 binding model), the Kd is 0.17 nM. Besides, the “NRAS/KRAS (ratio of KD value for NRAS to KD value for KRAS)” value in assay [2] (KD ratio class) is “A (a compound having 10 or more and less than 20 is denoted as A)”. For the same compound, in assay [3] (KD ratio class), the “HRAS/KRAS (ratio of KD value for HRAS to KD value for KRAS)” value was “B (a compound having 3 or more and less than 10 is denoted as B)”. The compound also yielded an IC50 in assay [4] of 14.1 nM.
Turning to `CCOC[C@H]1C(=O)N[C@@H]([C@@H](C)OCC)C(=O)N2CCC[C@H]2C(=O)N(C)[C@H]2C/C=C\CCN(C2=O)[C@@H](Cc2ccc(C)cc2)C(=O)N(C)CC(=O)N[C@@H](CCc2ccc(C(F)(F)F)c(OC)c2)C(=O)N2C[C@@H](C)C[C@H]2C(=O)NC2(CC(C)(C)C2)C(=O)N(C)[C@@H](C2CCCC2)C(=O)N(C)[C@H](C(=O)N(C)CC)CC(=O)N1C` [PP2433], in assay [1], the Kd was found to be 2.1 nM. Besides, the “NRAS/KRAS (ratio of KD value for NRAS to KD value for KRAS)” value in assay [2] is recorded as “AA (a compound having 20 or more is denoted as AA)”. Moreover, the “HRAS/KRAS (ratio of KD value for HRAS to KD value for KRAS)” value in assay [3] was “A (a compound having 10 or more and less than 20 is denoted as A)”. 120 nM corresponded to half-maximal inhibition in assay [4] (IC50).
Take `CCO[C@@H]1C[C@H]2C(=O)NC3(CC(C)(C)C3)C(=O)N(C)[C@@H](C(CC)CC)C(=O)N(C)[C@H](C(=O)N(C)C)CC(=O)N(C)[C@@H](CC3CC3)C(=O)N[C@@H]([C@@H](C)CC)C(=O)N(C)CC(=O)N(C)[C@H]3C/C=C\CCN(C3=O)[C@@H](CC3CCC(F)(F)CC3)C(=O)N(C)CC(=O)N[C@@H](CCc3cc(F)c(C(F)(F)F)c(F)c3)C(=O)N2C1` [PP2485]: the Kd in assay [1] turned out to be 0.78 nM. Also, the “NRAS/KRAS (ratio of KD value for NRAS to KD value for KRAS)” value in assay [2] is “A (a compound having 10 or more and less than 20 is denoted as A)”. Moreover, the “HRAS/KRAS (ratio of KD value for HRAS to KD value for KRAS)” value in assay [3] was “A (a compound having 10 or more and less than 20 is denoted as A)”. Moreover, half-maximal inhibition in assay [4] (IC50) was put at 55.5 nM.
On to `CCCC[C@H]1C(=O)N[C@@H]([C@@H](C)CC)C(=O)N(C)CC(=O)N(C)[C@H]2C/C=C\CCN(C2=O)[C@@H](Cc2ccc(C(F)(F)F)cc2)C(=O)N(C)CC(=O)N[C@@H](CCc2cc(F)c(C(F)(F)F)c(F)c2)C(=O)N2C[C@H](OCC)C[C@H]2C(=O)NC2(CCCC2)C(=O)N(C)[C@@H](C2CCCC2)C(=O)N(C)[C@H](C(=O)N(C)C)CC(=O)N1C` [PP1397, (2S,8S,12R,14S,20S,23S,27S,30S,36S,38Z)-27-butyl-20-cyclopentyl-8-[2-[3,5-difluoro-4-(trifluoromethyl)phenyl]ethyl]-12-ethoxy-N,N,4,19,22,26,32,35-octamethyl-30-[(1S)-1-methylpropyl]-3,6,9,15,18,21,25,28,31,34,42-undecaoxo-2-[[4-(trifluoromethyl)phenyl]methyl]spiro[1,4,7,10,16,19,22,26,29,32,35-undecazatricyclo[34.5.1.0^10,14]dotetracont-38-ene-17,1′-cyclopentane]-23-carboxamide], for which the Kd in assay [1] (1:1 binding model) turned out to be 0.073 nM. Also, the “NRAS/KRAS (ratio of KD value for NRAS to KD value for KRAS)” value in assay [2] (KD ratio class) was “A (a compound having 10 or more and less than 20 is denoted as A)”. Further, the “HRAS/KRAS (ratio of KD value for HRAS to KD value for KRAS)” value in assay [3] (KD ratio class) was “A (a compound having 10 or more and less than 20 is denoted as A)”. In assay [4], this compound registered an IC50 of 3.7 nM.
Turning to `CCO[C@@H]1C[C@H]2C(=O)NC3(CCC3)C(=O)N(C)[C@@H](C3CCCC3)C(=O)N(C)[C@H](C(=O)N(C)C)CC(=O)N(C)[C@@H](CC)C(=O)N[C@@H]([C@@H](C)CC)C(=O)N(C)CC(=O)N(C)[C@H]3C/C=C\CCN(C3=O)[C@@H](Cc3ccc(C(F)(F)F)cc3)C(=O)N(C)CC(=O)N[C@@H](CCc3ccc(Cl)c(Cl)c3)C(=O)N2C1` [PP1249], the Kd in assay [1] (1:1 binding model) came to 0.18 nM. Further, in assay [2] (KD ratio class), the “NRAS/KRAS (ratio of KD value for NRAS to KD value for KRAS)” value is “A (a compound having 10 or more and less than 20 is denoted as A)”. Moreover, in assay [3] (KD ratio class), the “HRAS/KRAS (ratio of KD value for HRAS to KD value for KRAS)” value is “A (a compound having 10 or more and less than 20 is denoted as A)”. Besides, the IC50 in assay [4] came to 55.4 nM.
As to `CCO[C@@H]1C[C@H]2C(=O)NC3(CCCC3)C(=O)N(C)[C@@H](C3CCCC3)C(=O)N(C)[C@H](C(=O)N(C)C)CC(=O)N(C)[C@@H](CC)C(=O)N[C@@H]([C@@H](C)CC)C(=O)N(C)CC(=O)N(C)[C@H]3CC[C@@H](C)CN(C3=O)[C@@H](Cc3ccc(C(F)(F)F)cc3)C(=O)N(C)CC(=O)N[C@@H](CCc3ccc(C(F)(F)F)c(Cl)c3)C(=O)N2C1` [PP1376], the dissociation constant (Kd) in assay [1] (1:1 binding model) is 0.037 nM. Further, the “NRAS/KRAS (ratio of KD value for NRAS to KD value for KRAS)” value in assay [2] (KD ratio class) is “B (a compound having 3 or more and less than 10 is denoted as B)”. The “HRAS/KRAS (ratio of KD value for HRAS to KD value for KRAS)” value in assay [3] (KD ratio class) was “B (a compound having 3 or more and less than 10 is denoted as B)”. Further, in assay [4], the IC50 turned out to be 3.5 nM.

A word on the Kd: it is the free concentration of one partner at which half of the binding sites on the other are occupied at equilibrium, for simple one-to-one binding. By IC50 is commonly meant the concentration needed to halve the response being measured. Read a high IC50 as lower potency.
